Data taken from publication PMC5916850 (Bioorganic & medicinal chemistry letters, 2018).

Target: GRK5 (Homo sapiens, UniProt P34947)
Assay: GRK phosphorylation assay, GRK5
Settings: average of three separate experiments run in duplicate; error = standard error of the mean

Sequence of GRK5 (P34947 whole entry, species assumed): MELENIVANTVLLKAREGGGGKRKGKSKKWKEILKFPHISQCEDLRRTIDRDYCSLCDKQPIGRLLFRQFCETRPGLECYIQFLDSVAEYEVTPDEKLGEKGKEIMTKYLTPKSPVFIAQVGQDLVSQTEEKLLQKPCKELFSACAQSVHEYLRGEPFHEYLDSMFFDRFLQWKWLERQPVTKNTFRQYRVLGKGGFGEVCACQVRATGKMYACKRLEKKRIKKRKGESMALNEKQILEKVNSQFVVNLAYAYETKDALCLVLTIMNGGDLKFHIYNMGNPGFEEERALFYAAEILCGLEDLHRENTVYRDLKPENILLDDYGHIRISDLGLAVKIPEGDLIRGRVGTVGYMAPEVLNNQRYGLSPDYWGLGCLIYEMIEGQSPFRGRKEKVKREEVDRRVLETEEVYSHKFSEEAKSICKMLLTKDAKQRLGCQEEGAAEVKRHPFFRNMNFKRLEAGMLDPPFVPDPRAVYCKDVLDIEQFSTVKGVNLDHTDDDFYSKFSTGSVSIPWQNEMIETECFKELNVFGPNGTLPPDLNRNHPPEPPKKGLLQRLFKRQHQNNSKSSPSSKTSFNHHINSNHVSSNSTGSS

Structure (SMILES)	GRK5 (IC50 μM)
COCCCC1CCCCN1C(=O)c1cc(C2NC(=O)NC(C)=C2C(=O)Nc2ccc3[nH]ncc3c2)ccc1F (stereo not shown) [Compound 48]	no sub-μM IC50 values
CCC(C)CN(CCO)C(=O)Cc1cc(C2NC(=O)NC(C)=C2C(=O)Nc2ccc3[nH]ncc3c2)ccc1F (stereo not shown) [Compound 44]	no sub-μM IC50 values
CC1=C(C(=O)Nc2ccc3[nH]ncc3c2)C(c2ccc(F)c(C(=O)NC(C)CCCC(C)C)c2)NC(=O)N1 (stereo not shown) [Compound 47]	no sub-μM IC50 values
CC1=C(C(=O)Nc2ccc3[nH]ncc3c2)C(c2ccc(F)c(C(=O)NC3CC4CCC3(C)C4(C)C)c2)NC(=O)N1 (stereo not shown) [Compound 32]	no sub-μM IC50 values
C#CCN(CC(C)C)C(=O)Cc1cc(C2NC(=O)NC(C)=C2C(=O)Nc2ccc3[nH]ncc3c2)ccc1F (stereo not shown) [Compound 38]	no sub-μM IC50 values
CC1=C(C(=O)Nc2ccc3[nH]ncc3c2)C(c2ccc(F)c(CCC(=O)N(CC(C)C)C(C)C)c2)NC(=O)N1 (stereo not shown) [Compound 41]	no sub-μM IC50 values
CC1=C(C(=O)Nc2ccc3[nH]ncc3c2)C(c2ccc(F)c(CC(=O)N3CCCC(C(C)(C)C)CC3)c2)NC(=O)N1 (stereo not shown) [Compound 31]	no sub-μM IC50 values
